Values joined by “and” are separate entries in the source; they are usually repeats but may differ in a detail not shown here. Identical values can stand only once. Like-named read-outs stand apart in the source and are kept apart here.
Columns and labels:
[1] = target: Glycogen synthase kinase 3β; settings: cited from earlier work; for Inhibition Mode / IC50: reference controls; for IC50: read-out: IC50, GSK-3β inhibition
human recombinant GSK-3β [2] = target: T1, human recombinant GSK-3β (Homo sapiens, UniProt P49841); test: GSK-3β enzyme inhibition assay (Kinase-Glo luminescent kinase assay); type: biochemical; settings: pure compounds, mean ± SEM of triplicate experiments
T1 construct: purchased ProSpec-Tany TechnoGene Ltd., Ness-Ziona, Israel
T1 sequence (P49841 whole entry): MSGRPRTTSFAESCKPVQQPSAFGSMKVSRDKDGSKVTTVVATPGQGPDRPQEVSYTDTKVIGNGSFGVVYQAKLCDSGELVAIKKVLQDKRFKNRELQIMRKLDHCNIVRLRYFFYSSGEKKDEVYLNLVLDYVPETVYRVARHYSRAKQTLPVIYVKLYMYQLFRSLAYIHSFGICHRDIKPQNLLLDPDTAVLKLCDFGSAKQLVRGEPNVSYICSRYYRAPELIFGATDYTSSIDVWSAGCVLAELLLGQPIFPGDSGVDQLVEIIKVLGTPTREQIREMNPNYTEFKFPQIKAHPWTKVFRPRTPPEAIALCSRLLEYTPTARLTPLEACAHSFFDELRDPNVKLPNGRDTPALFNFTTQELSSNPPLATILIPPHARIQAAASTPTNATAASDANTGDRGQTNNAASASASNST
Experimental: The enzymatic inhibition of GSK-3β in vitro was evaluated with human recombinant GSK-3β by using a Kinase-Glo reagent kit, according to Baki et al. [52] with a slight modification. The kinase reaction was performed in 384-well black plates. Test concentrations were prepared through serial dilution by using an assay buffer (pH 7.5) containing 50 mM HEPES, 1 mM EDTA, 1 mM EGTA, and 15 mM magnesium acetate. To initiate the reaction, 5 µL of sample, 5 µL of ATP (1 µM final concentration), 5 µL of 50 µM GSM, and 5 µL of 20 ng GSK-3β were mixed simultaneously in each well (the final DMSO concentration in the reaction mixture was less than 5%). Test samples were replaced by 5 µL of either buffer or luteolin to produce positive control (maximum activity) and negative control (total inhibition) samples. The reaction mixture was incubated at 37 °C for 30 min and was followed by the addition of the 20-µL Kinase-Glo reagent to stop the reaction. Glow-type luminescence was recorded after 10 min. The activity was proportional to the difference between total and consumed ATP. Inhibition activities were calculated on the basis of maximal activity, measured in the absence of the inhibitor, and the maximal inhibition was measured in the presence of the reference compound.

PC12 cells = system: PC12 cells; design: method as in PMID 19101570; settings: 20 µg/mL; cited from earlier work
BACE1 = system: BACE1; design: method as in PMID 29679864; settings: cited from earlier work
[3] = design: method as in PMID 29027831; settings: nasal administration in rats, cited from earlier work
SH-SY5Y-APPsw cells = system: SH-SY5Y-APPsw cells; design: method as in PMID 27258307; settings: by modulating BACE1 activity; cited from earlier work
[4] = system: induced pluripotent stem cells (iPSCs); design: method as in PMID 29421539; settings: via the AKT/GSK-3β signaling pathway; cited from earlier work
[5] = design: method as in PMID 21903108; settings: induced by scopolamine or Aβ25–35; cited from earlier work
[6] = design: method as in PMID 15484228, PMID 16905282; settings: oral administration; cited from earlier work
human recombinant GSK-3β [7] = target: T1, human recombinant GSK-3β; test: GSK-3β enzyme kinetics (Lineweaver–Burk and secondary plots, varying ATP or GSM substrate); type: biochemical; settings: for Ki: from secondary plots; for Inhibition Mode: Lineweaver–Burk plots
Experimental: The mode of GSK-3β enzyme inhibition by Sal B was characterized via kinetic study by using various concentrations of GSM substrate and ATP. Lineweaver–Burk plots showing reciprocal rates versus reciprocal GSM substrate/ATP concentrations (Figure 3) were deployed to explore the GSK-3β inhibition mechanism.
The GSK-3β enzyme kinetics was evaluated by using the assay method described in Section 4.4 with varying concentrations of ATP (2 µM, 1 µM, or 0.5 µM) or substrate (50 µM, 25 µM, or 12.5 µM). A Lineweaver–Burk plot was prepared by using double reciprocal plots of enzyme kinetic data. Ki values were calculated from the secondary plots.

[8] = read-out: IC50 (Mean ± SEM), GSK-3β inhibition
[9] = IC50 (Mean ± SEM), GSK-3β inhibition

| SMILES | Inhibition Mode [1] | IC50 [1] [µM] | IC50 (human recombinant GSK-3β [2]; [8]) | BACE1 inhibitory activity (BACE1) | further results |
| --- | --- | --- | --- | --- | --- |
| COc1ccc(CNC(=O)Nc2ncc([N+](=O)[O-])s2)cc1 [AR-A014418] | ATP-competitive [30] | 0.1 | – | – | Ki ([1]; reference control): 0.03 µM |
| O=C1Cc2c([nH]c3ccc([N+](=O)[O-])cc23)-c2ccccc2N1 [Alsterpaullone] | ATP-competitive [31] | 0.004 | – | – | – |
| O=C(O)/C=C/c1ccc(O)c(O)c1 [Caffeic acid] | – | – | 425 ± 7.61 µM | – | phosphorylation of GSK-3β and tau protein (PC12 cells): decreases the phosphorylation of GSK-3β and tau protein |
| O=C1Nc2ccccc2/C1=C1/Nc2ccccc2C1=O [Indirubin] | ATP-competitive [32] | 0.6 | – | – | – |
| O=c1cc(-c2ccc(O)c(O)c2)oc2cc(O)cc(O)c12 [Luteolin, reference compound] | – | – | – | – | IC50 (human recombinant GSK-3β [2]; [9]): 2.18 ± 0.13 µM |
| O=C(/C=C/c1ccc(O)c2c1[C@H](C(=O)O[C@H](Cc1ccc(O)c(O)c1)C(=O)O)[C@@H](c1ccc(O)c(O)c1)O2)O[C@H](Cc1ccc(O)c(O)c1)C(=O)O [Magnesium lithospermate B] | – | – | ~30 µM and 33.1 µM | potent activity | – |
| O=C(/C=C/c1ccc(O)c(O)c1)O[C@H](Cc1ccc(O)c(O)c1)C(=O)O [Rosmarinic acid] | – | – | 135 ± 4.69 µM | potent activity | – |
| O=C(/C=C/c1ccc(O)c(O)c1/C=C/c1ccc(O)c(O)c1)O[C@H](Cc1ccc(O)c(O)c1)C(=O)O [Salvianolic acid A] | – | – | ~30 µM and 30.2 µM | potent activity | – |
| O=C(C=Cc1ccc(O)c2c1C(C(=O)OC(Cc1ccc(O)c(O)c1)C(=O)O)C(c1ccc(O)c(O)c1)O2)OC(Cc1ccc(O)c(O)c1)C(=O)O (stereo not drawn) [Salvianolic acid B] | – | – | – | – | brain-targeting efficacy ([3]; compared to intravenous and oral administration): 5.54; bioavailability [3]: 43.98%; Aβ generation (SH-SY5Y-APPsw cells): inhibited Aβ generation; proliferation and differentiation into neurons of iPSCs [4]: potently improved; cognitive impairments [5]: reverses cognitive impairments; time to maximum plasma concentration [6]: 0.5 to 1 h; time traceable after administration [6]: up to 180 min; IC50 (human recombinant GSK-3β [2]; [9]): 6.97 ± 0.96 µM; Ki (human recombinant GSK-3β [7]; ATP-competitive inhibition, constant GSM substrate (25 μM), varying ATP (0.5, 1, 2 μM)): 5.44 µM; Ki (human recombinant GSK-3β [7]; muscle glycogen synthase (GSM)-competitive inhibition, constant ATP (1 μM), varying GSM substrate (12.5, 25, 50 μM)): 6.32 µM; Inhibition Mode (human recombinant GSK-3β [7]): ATP-competitive; Inhibition Mode (human recombinant GSK-3β [7]; listed as Sal B): ATP-competitive and GSM substrate–competitive |
| O=C(/C=C/c1ccc(O)c2oc(-c3ccc(O)c(O)c3)cc12)O[C@H](Cc1ccc(O)c(O)c1)C(=O)O [Salvianolic acid C] | – | – | ~30 µM and 31.8 µM | potent activity | – |
